Source: US9107410B2, “Pesticidal compositions and processes related thereto” (Dow AgroSciences LLC, priority 2011, dated 2015)
Like-named read-outs stand apart in the source and are kept apart here.

What was measured:
Assay type in all cases: in vivo
[1] = tested on: Beet Armyworm (BAW) (Spodoptera exigua); test: Bioassay on beet armyworm (BAW), 128-well diet tray assay; conditions: 168 h, read-out: % Mortality BAW 50 μg/cm^2
Description: (§1) Certain molecules disclosed in this document were tested against BAW and CEW using procedures described in the following examples. In the reporting of the results, the “BAW & CEW Rating Table” was used (See Table Section).
Bioassays on BAW (Spodoptera exigua)
Bioassays on BAW were conducted using a 128-well diet tray assay. One to five second instar BAW larvae were placed in each well (3 mL) of the diet tray that had been previously filled with 1 mL of artificial diet to which 50 μg/cm^2 of the test compound (dissolved in 50 μL of 90:10 acetone-water mixture) had been applied (to each of eight wells) and then allowed to dry. Trays were covered with a clear self-adhesive cover, and held at 25° C., 14:10 light-dark for five to seven days. Percent mortality was recorded for the larvae in each well; activity in the eight wells was then averaged. The results are indicated in the table entitled “Table: Bio Results” (See Table Section).

[2] = tested on: Corn Earworm (CEW) (Helicoverpa zea); test: Bioassay on corn earworm (CEW), 128-well diet tray assay; conditions: 168 h, read-out: % Mortality CEW 50 μg/cm^2
Description: as §1
Bioassays on CEW (Helicoverpa zea)
Bioassays on CEW were conducted using a 128-well diet tray assay. One to five second instar CEW larvae were placed in each well (3 mL) of the diet tray that had been previously filled with 1 mL of artificial diet to which 50 μg/cm^2 of the test compound (dissolved in 50 μL of 90:10 acetone-water mixture) had been applied (to each of eight wells) and then allowed to dry. Trays were covered with a clear self-adhesive cover, and held at 25° C., 14:10 light-dark for five to seven days. Percent mortality was recorded for the larvae in each well; activity in the eight wells was then averaged. The results are indicated in the table entitled “Table: Bio Results” (See Table Section).

[3] = tested on: Green Peach Aphid (GPA) (Myzus persicae); test: Bioassay on green peach aphid (GPA), foliar spray on cabbage seedlings; conditions: 72 h, read-out: % Mortality GPA 200 ppm
Description: Certain molecules disclosed in this document were tested against GPA using procedures described in the following example. In the reporting of the results, the “GPA Rating Table” was used (See Table Section).
Cabbage seedlings grown in 3-inch pots, with 2-3 small (3-5 cm) true leaves, were used as test substrate. The seedlings were infested with 20-50 GPA (wingless adult and nymph stages) one day prior to chemical application. Four pots with individual seedlings were used for each treatment. Test compounds (2 mg) were dissolved in 2 mL of acetone/methanol (1:1) solvent, forming stock solutions of 1000 ppm test compound. The stock solutions were diluted 5× with 0.025% Tween 20 in H2O to obtain the solution at 200 ppm test compound. A hand-held aspirator-type sprayer was used for spraying a solution to both sides of […] leaves until runoff. Reference plants (solvent check) were sprayed with the diluent only containing 20% by volume of acetone/methanol (1:1) solvent. Treated plants were held in a holding room for three days at approximately 25° C. and ambient relative humidity (RH) prior to grading. Evaluation was conducted by counting the number of live aphids per plant under a microscope. Percent Control was measured by using Abbott's correction formula (W. S. Abbott, “A Method of Computing the Effectiveness of an Insecticide” J. Econ. Entomol. 18 (1925), pp. 265-267) as follows. Corrected % Control=100*(X−Y)/X • where • X=No. of live aphids on solvent check plants and • Y=No. of live aphids on treated plants

[4] = 50 μg/cm^2 on artificial diet, second instar larvae, 25° C., five to seven days, average of eight wells
[5] = 200 ppm foliar spray on cabbage seedlings, graded after three days, Abbott corrected % control

SMILES	mortality at 50 µg/cm2 [1, 4]	mortality at 50 µg/cm2 [2, 4]	mortality at 200 ppm [3, 5]	mortality at 50 µg/cm2 [1]	mortality at 50 µg/cm2 [2]	mortality at 200 ppm ([3]; foliar)
Cc1cc(Cl)ccc1NC(=S)NC1CC1c1ccc(-c2ncn(-c3ccc(OC(F)(F)F)cc3)n2)cc1 (centres unmarked) [Compound 4, 1-(4-Chloro-2-methylphenyl)-3-(2-{4-[1-(4-trifluoromethoxyphenyl)-1H-[1,2,4]triazol-3-yl]phenyl}cyclopropyl)thiourea]	50 to 100%	50 to 100%	0%	–	–	–
Cc1cccc(C)c1NC(=S)NC1CC1c1ccc(-c2ncn(-c3ccc(OC(F)(F)F)cc3)n2)cc1 (centres unmarked) [Compound 12, 1-(2,6-Dimethylphenyl)-3-(2-(4-(1-(4-(trifluoromethoxy)phenyl)-1H-1,2,4-triazol-3-yl)phenyl)cyclopropyl)thiourea]	50 to 100%	50 to 100%	0 to 80%	–	–	–
Cc1cc(C)c(NC(=O)NC2CC2c2ccc(-c3ncn(-c4ccc(OC(F)(F)F)cc4)n3)cc2)c(C)c1 (centres unmarked) [Compound 30, 1-Mesityl-3-(2-(4-(1-(4-(trifluoromethoxy)phenyl)-1H-1,2,4-triazol-3-yl)phenyl)-cyclopropyl)urea]	0%	0%	0 to 80%	–	–	–
O=C(NC1CC1c1ccc(-c2ncn(-c3ccc(OC(F)(F)F)cc3)n2)cc1)Oc1ccccc1C(F)(F)F (centres unmarked) [Compound 25, 2-(Trifluoromethyl)phenyl 2-(4-(1-(4-(trifluoromethoxy)phenyl)-1H-1,2,4-triazol-3-yl)-phenyl)cyclopropylcarbamate]	–	–	–	0%	0%	0 to 80%
Cc1cc(C)c(NC(=S)NC2CC2c2ccc(-c3ncn(-c4ccc(OC(F)(F)F)cc4)n3)cc2)c(C)c1 (centres unmarked) [Compound 9, 1-(2-{4-[1-(4-Trifluoromethoxyphenyl)-1H-[1,2,4]triazol-3-yl]phenyl}-cyclopropyl)-3-(2,4,6-trimethylphenyl)thiourea]	50 to 100%	50 to 100%	0%	–	–	–
O=C(NC1CC1c1ccc(-c2ncn(-c3ccc(OC(F)(F)F)cc3)n2)cc1)Oc1ccccc1 (centres unmarked) [Compound 21, Phenyl 2-(4-(1-(4-(trifluoromethoxy)phenyl)-1H-1,2,4-triazol-3-yl)phenyl)cyclopropyl-carbamate]	–	–	–	50 to 100%	50 to 100%	0%
COc1ccc(NC(=S)NC2CC2c2ccc(-c3ncn(-c4ccc(OC(F)(F)F)cc4)n3)cc2)c(C)c1 (centres unmarked) [Compound 3, 1-(4-Methoxy-2-methylphenyl)-3-(2-{4-[1-(4-trifluoromethoxyphenyl)-1H-[1,2,4]triazol-3-yl]phenyl}cyclopropyl)thiourea]	50 to 100%	50 to 100%	0 to 80%	–	–	–
FC(F)(F)Oc1ccc(-n2cnc(-c3ccc(C4CC4NC(=S)Nc4ccccc4Cl)cc3)n2)cc1 (centres unmarked) [Compound 5, 1-(2-Chlorophenyl)-3-(2-{4-[1-(4-trifluoromethoxyphenyl)-1H-[1,2,4]triazol-3-yl]phenyl}cyclopropyl)thiourea]	50 to 100%	50 to 100%	0%	–	–	–
CC(OC(=O)NC1CC1c1ccc(-c2ncn(-c3ccc(OC(F)(F)F)cc3)n2)cc1)c1ccccn1 (centres unmarked) [Compound 20, 1-(Pyridin-2-yl)ethyl 2-(4-(1-(4-(trifluoromethoxy)phenyl)-1H-1,2,4-triazol-3-yl)phenyl)-cyclopropylcarbamate]	–	–	–	50 to 100%	50 to 100%	0 to 80%
CCc1cccc(CC)c1NC(=S)NC1CC1c1ccc(-c2ncn(-c3ccc(OC(F)(F)F)cc3)n2)cc1 (centres unmarked) [Compound 6, 1-(2,6-Diethylphenyl)-3-(2-{4-[1-(4-trifluoromethoxyphenyl)-1H-[1,2,4]triazol-3-yl]phenyl}cyclopropyl)thiourea]	50 to 100%	50 to 100%	0 to 80%	–	–	–
COC(=O)NC1CC1c1ccc(-c2ncn(-c3ccc(OC(F)(F)F)cc3)n2)cc1 (centres unmarked) [Compound 18, Methyl 2-(4-(1-(4-(trifluoromethoxy)phenyl)-1H-1,2,4-triazol-3-yl)phenyl)cyclopropyl-carbamate]	–	–	–	0%	0 to 50%	0%
COc1ccc(OC(=O)NC2CC2c2ccc(-c3ncn(-c4ccc(OC(F)(F)F)cc4)n3)cc2)cc1 (centres unmarked) [Compound 27, 4-Methoxyphenyl 2-(4-(1-(4-(trifluoromethoxy)phenyl)-1H-1,2,4-triazol-3-yl)phenyl)-cyclopropylcarbamate]	–	–	–	0 to 50%	50 to 100%	0%
O=C(NC1CC1c1ccc(-c2ncn(-c3ccc(OC(F)(F)F)cc3)n2)cc1)NC1CC1c1ccc(-c2ncn(-c3ccc(OC(F)(F)F)cc3)n2)cc1 (centres unmarked) [Compound 32, 1,3-bis(2-(4-(1-(4-(trifluoromethoxy)phenyl)-1H-1,2,4-triazol-3-yl)phenyl)cyclopropyl)urea]	0%	50 to 100%	0 to 80%	–	–	–
O=C(NC1CC1c1ccc(-c2ncn(-c3ccc(OC(F)(F)F)cc3)n2)cc1)Oc1c(Cl)cccc1Cl (centres unmarked) [Compound 28, 2,6-Dichlorophenyl 2-(4-(1-(4-(trifluoromethoxy)phenyl)-1H-1,2,4-triazol-3-yl)phenyl)-cyclopropylcarbamate]	–	–	–	0%	0%	0 to 80%
COc1cc(C)c(NC(=S)NC2CC2c2ccc(-c3ncn(-c4ccc(OC(F)(F)F)cc4)n3)cc2)c(C)n1 (centres unmarked) [Compound 14, 1-(6-Methoxy-2,4-dimethylpyridin-3-yl)-3-(2-(4-(1-(4-(trifluoromethoxy)-phenyl)-1H-1,2,4-triazol-3-yl)phenyl)cyclopropyl)thiourea]	50 to 100%	50 to 100%	0 to 80%	–	–	–
Cc1cc(F)ccc1OC(=O)NC1CC1c1ccc(-c2ncn(-c3ccc(OC(F)(F)F)cc3)n2)cc1 (centres unmarked) [Compound 22, 4-Fluoro-2-methylphenyl 2-(4-(1-(4-(trifluoromethoxy)phenyl)-1H-1,2,4-triazol-3-yl)-phenyl)cyclopropylcarbamate]	–	–	–	50 to 100%	50 to 100%	0%
CC(C)c1ccccc1OC(=O)NC1CC1c1ccc(-c2ncn(-c3ccc(OC(F)(F)F)cc3)n2)cc1 (centres unmarked) [Compound 29, 2-Isopropylphenyl 2-(4-(1-(4-(trifluoromethoxy)phenyl)-1H-1,2,4-triazol-3-yl)phenyl)-cyclopropylcarbamate]	–	–	–	50 to 100%	50 to 100%	0%
FC(F)(F)Oc1ccc(-n2cnc(-c3ccc(C4CC4NC(=S)Nc4ccccc4)cc3)n2)cc1 (centres unmarked) [Compound 1, 1-phenyl-3-(2-{4-[1-(4-trifluoromethoxyphenyl)-1H-[1,2,4]triazol-3-yl]phenyl}cyclopropyl)thiourea]	50 to 100%	50 to 100%	0%	–	–	–
Cc1cccc(C)c1/N=C(/NC1CC1c1ccc(-c2ncn(-c3ccc(OC(F)(F)F)cc3)n2)cc1)SCOC(=O)C(C)C (centres unmarked) [Compound 15, (Z)-(N′-(2,6-dimethylphenyl)-N-(2-(4-(1-(4-(trifluoromethoxy)phenyl)-1H-1,2,4-triazol-3-yl)phenyl)cyclopropyl)-carbamimidoylthio)methyl isobutyrate]	–	–	0 to 80%	–	–	–
Cc1cc(C)c(/N=C(/NC2CC2c2ccc(-c3ncn(-c4ccc(OC(F)(F)F)cc4)n3)cc2)SCOC(=O)C(C)C)c(C)c1 (centres unmarked) [Compound 16, (Z)-(N′-Mesityl-N-(2-(4-(1-(4-(trifluoromethoxy)phenyl)-1H-1,2,4-triazol-3-yl)phenyl)cyclopropyl)carbamimidoylthio)methyl isobutyrate]	–	–	0%	–	–	–
